Read-outs that look alike come from different tables or passages of the source. Some results are limits rather than exact numbers.

Experiment [1] relates to native NMDA receptors of rat CA1 hippocampal pyramidal neurons. Description: Whole-cell patch-clamp of NMDA-induced currents in isolated CA1 pyramidal neurons. Type of experiment: cell-based. To be noted: for inhibition of NMDA receptor steady-state currents (in words): 10 µM; for agonist dependence of action: NMDA 30 µM vs 1 mM; for agonist dependence of action / voltage dependence of inhibition (in words): cycloguanil 5 µM, proguanil 10 µM, phenformin 20 µM; for Kd: fit of voltage dependence (+30 to −120 mV) with Equation (2); for δ (fraction of membrane electric field crossed): fit with Equation (2), * = fixed value; for voltage dependence of inhibition (in words): holding potential +30 to −120 mV; for competitive or not competitive inhibition: inhibition compared at 30 µM and 1000 µM NMDA; for % of Inhibition (10 µM) −80 mV: steady-state current, 10 µM compound; for % of trapping in double-pulse protocol / tail currents on coapplication with agonist: cycloguanil 100 µM; for washout of mixture with Mg2+ compared with compound alone: 10 mM Mg2+; for Hill Coeff.: concentration–inhibition curve; for washout τ, compound alone (representative recording) / washout τ, compound + Mg (representative recording): Figure 5; for washout τ, compound + Mg (representative recording): with 10 mM Mg2+; for tail currents on coapplication with agonist: proguanil 100 µM, phenformin 300 µM; for washout time constant τ, compound alone: proguanil 30 µM, magnesium 10 mM. How it is done: NMDA receptors of these neurons consist mainly of GluN1, GluN2A and/or GluN2B subunits. We initially checked whether 10 µM concentrations of biguanide compounds metformin, phenformin, moroxydine, cycloguanil and proguanil would inhibit these steady-state currents. […] Hill coefficients were 1.0 ± 0.1, 1.1 ± 0.2 and 1.1 ± 0.1 for cycloguanil, proguanil and phenformin, respectively.
All experiments were conducted with approval by the Animal Care and Use Committee of the Sechenov Institute of Evolutionary Physiology and Biochemistry of the Russian Academy of Sciences (protocol 1-13/2023, 26 January 2023). Outbred male Wistar rats (13–18 days old, weighing 25–35 g) were sourced from the IEPHB facility. Maximum efforts were made to minimize the number of animals used and to reduce discomfort.
The rats were decapitated after sevoflurane anaesthetization. The brains were rapidly removed and cooled to 2–4 °C. Transverse hippocampal slices were prepared using a vibratome (Campden Instruments, Loughborough, UK), and single neurons were freed from slices by vibrodissociation. All experiments were performed at room temperature.
The whole-cell patch clamp technique was used to record membrane currents in response to applications of the agonists. Series resistance (<20 MΩ) was compensated by 70–80% and monitored during experiments. Currents were recorded using an EPC-8 amplifier (HEKA Electronics, Lambrecht, Germany), filtered at 5 kHz, sampled and stored on a personal computer. Drugs were applied using an RSC-200 (BioLogic, Seyssinet-Pariset, France) perfusion system under computer control. The extracellular solution contained (in mM) NaCl 143, KCl 5, CaCl2 2.5, D-glucose 18, and HEPES 10 (pH adjusted to 7.4 with […]). The pipette solution contained (in mM) CsF 100, CsCl 40, NaCl 5, CaCl2 0.5, EGTA 5, and HEPES 10 (pH adjusted to 7.2 with CsOH). Proguanil (HY-B0806), cycloguanil (HY-12784), phenformin hydrochloride (HY-16397A), metformin hydrochloride (HY-17471A), moroxydine hydrochloride (HY-B0420A) and ifenprodil tartrate (HY-12882A) were obtained from MedChemExpress (Monmouth Junction, NJ, USA). Other reagents were purchased from MedChemExpress (Monmouth Junction, NJ, USA), Sigma (St. Louis, MO, USA) or Tocris Bioscience (Bristol, UK).
Experiments were performed on pyramidal neurons from the CA1 area of the hippocampus. Unless otherwise specified, NMDA receptors were activated with 100 µM NMDA and 10 µM glycine. The percentage of steady-state current blockage by various drug concentrations was measured at holding voltages of either −80 or −30 mV. Transient processes lasting more than 20 ms were modeled using single or double exponential functions. In the case of double exponential fitting, the weighted time constant was employed.
The voltage dependence of the compounds’ action was analyzed using the classical Woodhull model with the voltage-independent component addition. According to the Woodhull model of an impermeable blocker, the voltage dependence of steady-state blockade is defined by Equation (1):(1) B=100/(1+Kb/C×exp〖Fzδ/RTV〗) where V is voltage; B is the level of the block (%); C is the concentration of the drug; z is the molecular charge; and R, F and T have their standard meanings. Kb is the affinity of a drug for the channel, and δ is the electrical depth of the binding site. The δ value reflects the fraction of membrane electric field that the charged blocking molecule crosses on its pathway between the external media and the binding site in the channel.
Our experimental data were not well fitted by the abovementioned equation, presumably because of the presence of a voltage-independent component. Thus, we used an Equation (2), taking it into account, assuming that the binding to the deep and superficial site is independent:(2) B=100−100/(1+C/(Kvd×exp〖Fzδ/RTV〗)+C/Kvi+(C×C)/(Kvd×exp〖Fzδ/RTV〗×Kvi)) […]
(In general: The patch-clamp technique gives a direct electrical read-out from membranes.)

The subject of experiment [2] is NMDA receptors. On the set-up: method as in PMID 12009768. Conditions: acute phenformin treatment, cited from earlier work.
Experiment [3] concerns the target NMDA receptors. To be noted: −30 mV in the presence of physiological magnesium concentration; read-out: IC50 of memantine; cited from earlier work.
The mark [4] stands for this setting: read-out: Kvd (affinity for the deep site in the channel pore).
[5] abbreviates: read-out: Kvi (affinity for the superficial, voltage-independent site).
The mark [6] stands for this setting: 100 µM NMDA + 10 µM glycine, −80 mV, no Mg2+.
Where [7] appears, read: −30 mV holding voltage, 1 mM Mg2+, read-out: IC50 at −30 mV in the presence of 1 mM Mg2+.
The mark [8] stands for this setting: −30 mV holding voltage, no Mg2+, read-out: IC50 at −30 mV in the absence of Mg2+.
The mark [9] stands for this setting: −80 mV holding voltage, no Mg2+, 100 µM NMDA + 10 µM glycine, read-out: IC50, µM −80 mV.
Setting [10] is: −80 mV, Cyclog 10 µM, Ifen 10 µM.
Setting [11] is: −80 mV, Mg 10 mM, Prog 30 µM, Phen 50 µM.

As a reminder, the IC50 is the concentration that inhibits the measured activity by half. With `CC1(C)N=C(N)N=C(N)N1c1ccc(Cl)cc1` [Cycloguanil, cycloguanil], in experiment [1], the “mechanism of NMDA receptor inhibition” value is listed as “voltage-dependent trapping channel blocker”, the “agonist dependence of action” value is given as “agonist-independent”, the “δ (fraction of membrane electric field crossed)” value came to 0.7 ± 0.1 and the “voltage dependence of inhibition (in words)” value is listed as “clearly voltage-dependent”. The “competitive or not competitive inhibition” value in experiment [1] is given as “not competitive”. In experiment [1] (−80 mV), the “inhibition of NMDA receptor steady-state currents (in words)” value was “significant inhibition”, the “overshoots on washout in the presence of agonists” value (“overshoots on washout” below) was “did not demonstrate overshoots”, the “washout of mixture with Mg2+ compared with compound alone” value (“washout … compared with compound alone” for short) was “significantly faster” and the “Hill Coeff.” value is listed as 1.0 ± 0.1. Moreover, in experiment [1] (−80 mV), the “washout τ, compound + Mg (representative recording)” value (“washout τ, compound + Mg” below) came out at 60 ms and the “tail currents on coapplication with agonist” value (from here on “tail currents on coapplication”) is given as “tail current absence”. Also, in experiment [1] (setting [4]), the Kd was determined as 55 ± 11 µM. Further, the Kd in experiment [1] (setting [5]) was greater than 500 µM. The “% of Inhibition (10 µM) −80 mV” value in experiment [1] (setting [6]) is 76 ± 5 (n = 4) %. For the same compound, the “effect of 1 mM Mg2+ on activity at −30 mV” value (“effect of 1 mM Mg2+” for short) in experiment [1] (−30 mV holding voltage) was “attenuated”. Moreover, the half-inhibitory concentration (IC50) in experiment [1] (setting [7]) was found to be 34 ± 10 µM. Besides, the half-maximal inhibitory concentration (IC50) in experiment [1] (setting [8]) was 20 ± 5 µM. Besides, the concentration for half-maximal inhibition (IC50) in experiment [1] (setting [9]) stood at 3.4 ± 0.6 µM. For the same compound, in experiment [1] (−80 mV holding voltage), the “% of trapping in double-pulse protocol” value was 68 ± 11%. The “washout τ, compound alone (representative recording)” value (“washout τ, compound alone” for short) in experiment [1] (setting [10]) is 3000 ms.

On to `CN(C)C(=N)N=C(N)N` [Metformin, metformin], for which the “inhibition of NMDA receptor steady-state currents (in words)” value in experiment [1] (−80 mV) is given as “practically ineffective”. Also, in experiment [1] (setting [6]), the “% of Inhibition (10 µM) −80 mV” value is 6 ± 5 (n = 4) %.

Regarding `N=C(N)/N=C(\N)N1CCOCC1` [Moroxydine, moroxydine], the “inhibition of NMDA receptor steady-state currents (in words)” value in experiment [1] (−80 mV) was “practically ineffective”. Besides, in experiment [1] (setting [6]), the “% of Inhibition (10 µM) −80 mV” value is recorded as 5 ± 4 (n = 4) %.

With `[H]/N=C(/N)N/C(=N/[H])NCCc1ccccc1` [Phenformin, phenformin], in experiment [1], the “mechanism of NMDA receptor inhibition” value is “allosteric inhibitors”, the “agonist dependence of action” value is “more active in conditions of higher agonist concentration”, the “δ (fraction of membrane electric field crossed)” value is 0.7 * and the “voltage dependence of inhibition (in words)” value is recorded as “mostly voltage-independently with a small voltage-dependent component”. Moreover, in experiment [1], the “competitive or not competitive inhibition” value is recorded as “not competitive”. In experiment [1] (−80 mV), the “inhibition of NMDA receptor steady-state currents (in words)” value is given as “significant inhibition”, the “overshoots on washout” value is given as “did not demonstrate overshoots”, the “washout … compared with compound alone” value is given as “significantly faster” and the “Hill Coeff.” value is 1.1 ± 0.1. In experiment [1] (−80 mV), the “washout τ, compound + Mg” value stood at 50 ms and the “tail currents on coapplication” value was “tail current absence”. The Kd in experiment [1] (setting [4]) was greater than 500 µM. In addition, the Kd in experiment [1] (setting [5]) worked out at 22 ± 2 µM. The “% of Inhibition (10 µM) −80 mV” value in experiment [1] (setting [6]) is 44 ± 2 (n = 5) %. Also, the “effect of 1 mM Mg2+” value in experiment [1] (−30 mV holding voltage) is reported as “not affected”. For the same compound, the 50% inhibitory concentration (IC50) in experiment [1] (setting [7]) is 41 ± 6 µM. In addition, the IC50 in experiment [1] (setting [8]) was found to be 36 ± 5 µM. The IC50 in experiment [1] (setting [9]) came to 13 ± 1 µM. Besides, in experiment [1] (−80 mV holding voltage), the “% of trapping in double-pulse protocol” value is less than 5%. Further, the “washout τ, compound alone” value in experiment [1] (setting [11]) was 180 ms. Further, in experiment [2] (1 µM), the “effect on NMDA-induced whole-cell current” value was “did not affect”. Also, the “effect on calcium responses to NMDA” value in experiment [2] is reported as “did not alter”.

On to `[H]/N=C(\N/C(=N/[H])Nc1ccc(Cl)cc1)NC(C)C` [Proguanil, proguanil], for which, in experiment [1], the “mechanism of NMDA receptor inhibition” value is given as “allosteric inhibitors”, the “agonist dependence of action” value is “more active in conditions of higher agonist concentration”, the “δ (fraction of membrane electric field crossed)” value was 0.7 * and the “voltage dependence of inhibition (in words)” value is listed as “mostly voltage-independently with a small voltage-dependent component”. Moreover, in experiment [1], the “competitive or not competitive inhibition” value is recorded as “not competitive”. In addition, in experiment [1] (−80 mV), the “inhibition of NMDA receptor steady-state currents (in words)” value was “significant inhibition”, the “overshoots on washout” value is reported as “did not demonstrate overshoots”, the “washout … compared with compound alone” value is listed as “significantly faster” and the “Hill Coeff.” value was found to be 1.1 ± 0.2. For the same compound, in experiment [1] (−80 mV), the “washout τ, compound + Mg” value was found to be 75 ms and the “tail currents on coapplication” value was “tail current absence”. Further, the Kd in experiment [1] (setting [4]) is greater than 500 µM. Also, the Kd in experiment [1] (setting [5]) worked out at 14 ± 1 µM. In experiment [1] (setting [6]), the “% of Inhibition (10 µM) −80 mV” value is given as 51 ± 6 (n = 5) %. The “effect of 1 mM Mg2+” value in experiment [1] (−30 mV holding voltage) is listed as “not affected”. In addition, the 50% inhibitory concentration (IC50) in experiment [1] (setting [7]) is 17 ± 3 µM. Also, the IC50 in experiment [1] (setting [8]) was determined as 13 ± 3 µM. In addition, the “activity lower than that of memantine (fold)” value in experiment [1] (−30 mV, 1 mM Mg2+, compared with memantine IC50 of ref 40) is given as “approximately three-fold”. Also, the half-inhibitory concentration (IC50) in experiment [1] (setting [9]) is 9 ± 2.2 µM. Further, the “% of trapping in double-pulse protocol” value in experiment [1] (−80 mV holding voltage) is on record as less than 5%. Besides, the “washout time constant τ, mixture with Mg2+” value in experiment [1] (−80 mV, mean ± SD, proguanil 30 µM + 10 mM Mg2+) is reported as 76 ± 32 ms. The “washout time constant τ, compound alone” value in experiment [1] (−80 mV, mean ± SD) was 470 ± 120 ms. Moreover, the “washout τ, compound alone” value in experiment [1] (setting [11]) is 550 ms.

Turning to `CC(C(O)c1ccc(O)cc1)N1CCC(Cc2ccccc2)CC1` (stereo not drawn) [ifenprodil], in experiment [1] (−80 mV), the “washout … compared with compound alone” value is “does not affect” and the “washout τ, compound + Mg” value came out at 28000 ms. For the same compound, in experiment [1] (setting [10]), the “washout τ, compound alone” value was 28000 ms.

Consider `[Mg+2]` [magnesium], for which the “washout time constant τ, compound alone” value in experiment [1] (−80 mV, mean ± SD) is recorded as 30 ± 16 ms. Also, the “washout τ, compound alone” value in experiment [1] (setting [11]) was 30 ms.

For the compound `CC12CC3CC(C)(C1)CC(N)(C3)C2` [memantine], the IC50 in experiment [3] is 6.4 ± 0.5 µM.

Source of the values: article PMC11434645, “Mechanisms of NMDA Receptor Inhibition by Biguanide Compounds” (Pharmaceuticals, 2024).
